Experimental data: PubChem BioAssay (NCI)
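Cells were grown in 96-well plates and exposed to each compound for 48 hours at five concentrations; endpoints were interpolated linearly between bracketing concentrations, or set to the highest concentration if not reached. Here, GI50 denotes the concentration required for 50% inhibition of growth. Definition used: TGI = concentration required for complete inhibition of growth.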

How the values were obtained:
Experiment in all cases: DTP human tumour cell line panel, 48 h
[1] = system: 786-0 renal
[2] = system: SF-268 CNS
[3] = system: MDA-MB-231 breast
[4] = system: SK-OV-3 ovarian
[5] = system: SF-539 CNS
[6] = system: T-47D breast
[7] = system: SK-MEL-28 melanoma
[8] = system: HL-60(TB) leukemia
[9] = system: COLO 205 colon
[10] = system: HCC-2998 colon
[11] = system: M14 melanoma
[12] = system: UO-31 renal
[13] = system: TK-10 renal
[14] = system: OVCAR-8 ovarian
[15] = system: MDA-MB-468 breast
[16] = system: UACC-62 melanoma
[17] = system: HOP-92 NSCLC
[18] = system: MCF7 breast
[19] = system: MALME-3M melanoma
[20] = system: MDA-MB-435
[21] = system: A498 renal
[22] = system: OVCAR-5 ovarian
[23] = system: ACHN renal
[24] = system: CAKI-1 renal
[25] = system: NCI-H23 lung
[26] = system: SN12C renal
[27] = system: MOLT-4 leukemia
[28] = system: SK-MEL-2 melanoma
[29] = system: RXF 393 renal
[30] = system: U251 CNS
[31] = system: HOP-62 NSCLC
[32] = system: SW-620 colon
[33] = system: IGROV1 ovarian
[34] = system: OVCAR-3 ovarian
[35] = system: NCI-H522 lung
[36] = system: EKVX NSCLC
[37] = system: SNB-19 CNS
[38] = system: A549 NSCLC
[39] = system: BT-549 breast
[40] = system: SR leukemia
[41] = system: RPMI-8226 leukemia
[42] = system: NCI-H226 lung
[43] = system: NCI/ADR-RES ovarian
[44] = system: SNB-75 CNS
[45] = system: SK-MEL-5 melanoma
[46] = system: HS 578T breast
[47] = system: NCI-H460 lung
[48] = system: K-562 leukemia
[49] = system: HCT-15 colon
[50] = system: HT29 colon
[51] = system: SF-295 CNS
[52] = system: LOX IMVI melanoma
[53] = system: CCRF-CEM leukemia
[54] = system: KM12 colon
[55] = system: OVCAR-4 ovarian
[56] = system: HCT-116 colon
[57] = system: DU-145 prostate
[58] = system: PC-3 prostate

Compound `O=C(Nc1cccc(-n2cnc3cc(-c4ccc(O)cc4)ccc32)c1)C1CC1` has a GI50 [1] of 0.683 µM, a TGI [1] of 45.6 µM and a GI50 [2] of 0.935 µM. It also gave a TGI [2] of 71 µM, a GI50 [3] of 0.7 µM and a TGI [3] of 42.9 µM. For the same compound, the GI50 [4] was 0.82 µM, the TGI [4] was 33.7 µM and the GI50 [5] was 0.332 µM. The TGI [5] was 2.03 µM, the GI50 [6] was 0.521 µM and the TGI [6] was 19.4 µM. For the same compound, the GI50 [7] was 12.6 µM, the TGI [7] was 48.5 µM and the GI50 [8] was 0.237 µM. The TGI [8] was 0.645 µM, the GI50 [9] was 0.489 µM and the TGI [9] was 18.6 µM. The GI50 [10] was 1.18 µM, the TGI [10] was 24.4 µM and the GI50 [11] was 0.344 µM. It also gave a TGI [11] of 28.3 µM, a GI50 [12] of 0.599 µM and a TGI [12] of 19.3 µM. The GI50 [13] was 11.3 µM, the TGI [13] was 63.4 µM and the GI50 [14] was 0.823 µM. For the same compound, the TGI [14] was greater than 58.8 µM, the GI50 [15] was 0.313 µM and the TGI [15] was 8.82 µM. It also gave a GI50 [16] of 0.354 µM, a TGI [16] of 19.3 µM and a GI50 [17] of 14.6 µM. It also gave a TGI [17] of 52.1 µM, a GI50 [18] of 0.358 µM and a TGI [18] of 20.2 µM. The GI50 [19] was 0.555 µM, the TGI [19] was 28.2 µM and the GI50 [20] was 0.108 µM. The TGI [20] was 0.441 µM, the GI50 [21] was 19.5 µM and the TGI [21] was 84.9 µM. It also gave a GI50 [22] of 1.81 µM, a TGI [22] of 69.5 µM and a GI50 [23] of 0.593 µM. It also gave a TGI [23] of 35.2 µM, a GI50 [24] of 0.503 µM and a TGI [24] of 66.5 µM. For the same compound, the GI50 [25] was 1.12 µM, the TGI [25] was 19.8 µM and the GI50 [26] was 0.55 µM. For the same compound, the TGI [26] was 35.6 µM, the GI50 [27] was 0.435 µM and the TGI [27] was 6.19 µM. The GI50 [28] was 0.417 µM, the TGI [28] was 23.6 µM and the GI50 [29] was 0.411 µM. For the same compound, the TGI [29] was 6.6 µM, the GI50 [30] was 0.514 µM and the TGI [30] was greater than 100 µM. The GI50 [31] was 0.625 µM, the TGI [31] was greater than 69.2 µM and the GI50 [32] was 0.421 µM. For the same compound, the TGI [32] was greater than 91.5 µM, the GI50 [33] was 0.591 µM and the TGI [33] was 26.9 µM. The GI50 [34] was 0.32 µM, the TGI [34] was 3.76 µM and the GI50 [35] was 0.225 µM. For the same compound, the TGI [35] was 1.14 µM, the GI50 [36] was 0.782 µM and the TGI [36] was 36.1 µM. The GI50 [37] was 0.811 µM, the TGI [37] was 72.9 µM and the GI50 [38] was 0.895 µM. For the same compound, the TGI [38] was greater than 100 µM, the GI50 [39] was 0.396 µM and the TGI [39] was 11.8 µM. For the same compound, the GI50 [40] was 0.175 µM, the TGI [40] was 59.6 µM and the GI50 [41] was 0.615 µM. For the same compound, the TGI [41] was 13.6 µM, the GI50 [42] was 2.88 µM and the TGI [42] was 48.1 µM. It also gave a GI50 [43] of 0.539 µM, a TGI [43] of 5.88 µM and a GI50 [44] of 0.246 µM. The TGI [44] was 3.42 µM, the GI50 [45] was 0.35 µM and the TGI [45] was 14.8 µM. The GI50 [46] was 0.388 µM, the TGI [46] was greater than 45.4 µM and the GI50 [47] was 0.469 µM. The TGI [47] was greater than 43.7 µM, the GI50 [48] was 0.284 µM and the TGI [48] was greater than 36.6 µM. For the same compound, the GI50 [49] was 0.308 µM, the TGI [49] was 15.7 µM and the GI50 [50] was 0.34 µM. For the same compound, the TGI [50] was greater than 40.8 µM, the GI50 [51] was 0.372 µM and the TGI [51] was 7.67 µM. For the same compound, the GI50 [52] was 0.478 µM, the TGI [52] was 22.1 µM and the GI50 [53] was 0.389 µM. For the same compound, the TGI [53] was 10.3 µM, the GI50 [54] was 0.351 µM and the TGI [54] was 13.9 µM. For the same compound, the GI50 [55] was 5.94 µM, the TGI [55] was 73.9 µM and the GI50 [56] was 0.512 µM. It also gave a TGI [56] of 17.7 µM, a GI50 [57] of 1.46 µM and a TGI [57] of 28.4 µM. For the same compound, the GI50 [58] was 0.546 µM and the TGI [58] was 53.2 µM.
